Laboratory results taken from patent US5210215A, “Tryptophane and 3-indolepyruvic acid, methods of production therefor” (Polifarma S.p.A., priority 1989, dated 1993).
Where two headings read alike, the source gives them in different places.

Assays:
[1] = system: formation of free radicals from biological membrane undergoing oxidative stress (MDA formation); assay: Formation of malonodialdehyde (MDA) test: antagonism of free radical formation from biological membrane undergoing oxidative stress; assay type: biochemical; details: in vitro; IC50 = dose of compound necessary to reduce by 50% the harmful effect
Protocol: For the first experiment was chosen the test on formation of malonodialdehyde (MDA). Briefly, the capacity was tested of the above compounds to antagonize the formation of free radicals from biological membrane undergoing oxidative stress.
(§1) of compound necessary to reduce by 50% the harmful effect to be added to the in vitro tests or to be administered to mice.

[2] = system: convulsions and death induced by NMDA (N-methyl-D-aspartic acid); assay: Antagonism of convulsions and death induced by NMDA (N-methyl-D-aspartic acid); assay type: in vivo; details: Mus musculus, ip, mice, IC50 = dose necessary to reduce by 50% the harmful effect
Protocol: For the second experiment, on the contrary, the capacity of the compounds to antagonize the convulsions and death induced by NMDA (N-methyl-D-aspartic acid), an excitatory amino acid, was evaluated.
as §1

[3] = convulsions, read-out: CONVULSIONS from MDA IC50
[4] = death, read-out: DEATH from MDA IC50

Row | Structure (SMILES) | IC50 [1] [µM] | ED50 [2, 3] [mg/kg] | ED50 [2, 4] [mg/kg]
1 | O=C(O)C(=O)Cc1c[nH]c2cc(O)ccc12 [6-OH-IPA] | 500 | 800 | 200
2 | O=C(O)C(=O)Cc1c[nH]c2cc(Cl)ccc12 [6-Cl-IPA, 6-chloro-indole-3-yl-pyruvic acid] | 100 | 20 | 10
3 | Cc1ccc2c(CC(=O)C(=O)O)c[nH]c2c1 [6-Me-IPA, 6-methyl-indole-3-yl-pyruvic] | 60 | 200 | 100
4 | O=C(O)C(=O)Cc1c[nH]c2cccc(Cl)c12 [4-Cl-IPA, 4-chloro-indole-3-yl-pyruvic] | 1000 | 1000 | 200
5 | COc1ccc2c(CC(=O)C(=O)O)c[nH]c2c1 [6-OMe-IPA] | 100 | 200 | 100
6 | NC(Cc1c[nH]c2cc(Cl)ccc12)C(=O)O (racemic) [6-Cl-TRP, 6-chloro-DL-tryptophan] | 1000 | 1000 | 200
7 | O=C(O)C(=O)Cc1c[nH]c2cc(Br)ccc12 [6-Br-IPA] | 50 | 100 | 20
8 | O=C(O)C(=O)Cc1c[nH]c2c(Cl)cccc12 [7-Cl-IPA] | 400 | 1000 | 200
9 | O=C(O)C(=O)Cc1c[nH]c2ccccc12 [IPA, 3-indolepyruvic acid] | 10 | 200 | 50
10 | O=C(O)C(=O)Cc1c[nH]c2ccc(Cl)cc12 [5-Cl-IPA, 5-chloro-indole-3-yl-pyruvic] | 500 | 600 | 200
